Patent US20140206726A1 (priority 2011, published 2014)

Assays:
[1] = Measurement of logP values by HPLC on reversed phase columns (EEC directive 79/831 Annex V.A8); format: physicochemical; settings: for LogP: method [a]: pH 2,7, 0.1% formic acid in water / acetonitrile, linear gradient 10% to 95% acetonitrile
Method: Measurement of logP values was performed according EEC directive 79/831 Annex V.A8 by HPLC (High Performance Liquid Chromatography) on reversed phase columns with the following methods:
^[a] Measurement of LC-MS was done at pH 2,7 with 0.1% formic acid in water and with acetonitrile (contains 0.1% formic acid) as eluent with a linear gradient from 10% acetonitrile to 95% acetonitrile.
Calibration was done with not branched alkan2-ones (with 3 to 16 carbon atoms) with known logP-values (measurement of logP values using retention times with linear interpolation between successive alkanones). lambda-maX-values were determined using UV-spectra from 200 nm to 400 nm and the peak values of the chromatographic signals.

Phytophthora infestans = format: in vivo; settings: tomato plants, preventive spray, 100 ppm of active ingredient, evaluated 7 days after inoculation
Plasmopara viticola = experiment: Plasmopara test (grapevines) / preventive; format: in vivo; settings: grapevine plants, preventive spray, 10 ppm of active ingredient, evaluated 6 days after inoculation
Method: Plasmopara Test (Grapevines)/Preventive
Solvent: 24.5 parts by weight of acetone • 24.5 parts by weight of dimethylacetamide
Emulsifier: 1 part by weight of alkylaryl polyglycol ether
To produce a suitable preparation of active compound, 1 part by weight of active compound is mixed with the stated amounts of solvent and emulsifier, and the concentrate is diluted with water to the desired concentration.
To test for preventive activity, young plants are sprayed with the preparation of active compound at the stated rate of application. After the spray coating has dried on, the plants are inoculated with an aqueous spore suspension of Plasmopara viticola and then remain for 1 day in an incubation cabinet at approximately 20° C. and a relative atmospheric humidity of 100%. The plant is subsequently placed for 4 days in a greenhouse at approximately 21° C. and a relative atmospheric humidity of approximately 90%.
The plants are then misted and placed for 1 day in an incubation cabinet.
The test is evaluated 6 days after the inoculation. 0% means an efficacy which corresponds to that of the untreated control, while an efficacy of 100% means that no disease is observed.

SMILES	LogP [1]	Eff. % (Phytophthora infestans)	chromatographic logP ([1]; reversed phase HPLC columns, pH 2.7, HCOOH method, reported in preparation example)	Eff. % (Plasmopara viticola)
CC1=NOC(C)(C(=O)Nc2cccc(CON=C(c3ccccc3)c3nnnn3C)n2)C1 (stereo not drawn) [Example 1]	2.84^[a]			
Cn1nnnc1C(=NOCc1cccc(NC(=O)C2CC(c3ccccc3)=NO2)n1)c1ccccc1 (stereo not drawn) [Example 2]	3.51^[a]			
Cn1nnnc1/C(=N\OCc1cccc(NC(=O)C2CC(c3ccccc3F)=NO2)n1)c1ccccc1 (stereo not drawn) [Example 3, 3-(2-fluorophenyl)-N-{6-[({[(Z)-(1-methyl-1H-tetrazol-5-yl)(phenyl)methylene]amino}oxy)methyl]pyridin-2-yl}-4,5-dihydro-1,2-oxazole-5-carboxamide]		93%	3.5	74%
Cc1nnnn1C(=NOCc1cccc(NC(=O)C2CC(c3ccccc3F)=NO2)n1)c1ccccc1 (stereo not drawn) [Example 4]	3.59^[a]	95%		
Cn1nnnc1C(=NOCc1cccc(NC(=O)C2(C)CC(c3ccccc3)=NO2)n1)c1ccccc1 (stereo not drawn) [Example 5]	3.87^[a]	89%		
Cc1nnnn1C(=NOCc1cccc(NC(=O)C2(C)CC(c3ccccc3)=NO2)n1)c1ccccc1 (stereo not drawn) [Example 6]	3.94^[a]	95%		85%
CC1=NOC(C)(C(=O)Nc2nc(CON=C(c3ccccc3)n3nnnc3C)cs2)C1 (stereo not drawn) [Example 7]	2.73^[a]			
Cc1nnnn1C(=NOCc1csc(NC(=O)C2CC(c3ccccc3)=NO2)n1)c1ccccc1 (stereo not drawn) [Example 8]	3.35^[a]	95%		
CC1=NOC(C)(C(=O)Nc2nc(CON=C(c3ccccc3)c3nnnn3C)cs2)C1 (stereo not drawn) [Example 9]	2.69^[a]	85%		
Cn1nnnc1C(=NOCc1csc(NC(=O)C2CC(c3ccccc3)=NO2)n1)c1ccccc1 (stereo not drawn) [Example 10]	3.31^[a]	93%		
Cn1nnnc1C(=NOCc1csc(NC(=O)C2CC(c3ccccc3F)=NO2)n1)c1ccccc1 (stereo not drawn) [Example 11]	3.29^[a]	95%		
Cc1nnnn1C(=NOCc1csc(NC(=O)C2CC(c3ccccc3F)=NO2)n1)c1ccccc1 (stereo not drawn) [Example 12]	3.31^[a]	95%		
Cn1nnnc1C(=NOCc1csc(NC(=O)C2(C)CC(c3ccccc3)=NO2)n1)c1ccccc1 (stereo not drawn) [Example 13]	3.6^[a]	100%		97%
Cc1nnnn1C(=NOCc1csc(NC(=O)C2(C)CC(c3ccccc3)=NO2)n1)c1ccccc1 (stereo not drawn) [Example 14]	3.64^[a]	95%		92%
Cn1nnnc1C(=NOCc1csc(NC(=O)C2CC(c3ccccc3Cl)=NO2)n1)c1ccccc1 (stereo not drawn) [Example 15]	3.48^[a]	90%		
CC1=NOC(C(=O)Nc2nc(CON=C(c3ccccc3)c3nnnn3C)cs2)C1 (stereo not drawn) [Example 16]	2.35^[a]	93%		
Cn1nnnc1C(=NOCc1csc(NC(=O)C2CC(c3cc(F)ccc3F)=NO2)n1)c1ccccc1 (stereo not drawn) [Example 17]	3.39^[a]	95%		
CC(C)C1=NOC(C(=O)Nc2nc(CON=C(c3ccccc3)c3nnnn3C)cs2)C1 (stereo not drawn) [Example 18]	2.92^[a]	93%		
CCC1=NOC(C(=O)Nc2nc(CON=C(c3ccccc3)c3nnnn3C)cs2)C1 (stereo not drawn) [Example 19]	2.64^[a]	85%		
Cn1nnnc1C(=NOCc1csc(NC(=O)C2CC(c3c(F)cccc3Cl)=NO2)n1)c1ccccc1 (stereo not drawn) [Example 20]	3.44^[a]	93%		
COc1ccc(C2=NOC(C(=O)Nc3nc(CON=C(c4ccccc4)c4nnnn4C)cs3)C2)cc1 (stereo not drawn) [Example 21]	3.25^[a]	85%		
Cc1nnnn1C(=NOCc1csc(NC(=O)C2CC(c3c(F)cccc3Cl)=NO2)n1)c1ccccc1 (stereo not drawn) [Example 22]	3.48^[a]	90%		
COc1ccc(C2=NOC(C(=O)Nc3nc(CON=C(c4ccccc4)n4nnnc4C)cs3)C2)cc1 (stereo not drawn) [Example 23]	3.29^[a]			
Cc1nnnn1C(=NOCc1csc(NC(=O)C2CC(c3cc(F)ccc3F)=NO2)n1)c1ccccc1 (stereo not drawn) [Example 24]	3.46^[a]	93%		
Cc1nnnn1C(=NOCc1csc(NC(=O)C2CC(C(C)C)=NO2)n1)c1ccccc1 (stereo not drawn) [Example 25]	2.96^[a]	85%		
CCC1=NOC(C(=O)Nc2nc(CON=C(c3ccccc3)n3nnnc3C)cs2)C1 (stereo not drawn) [Example 26]	2.68^[a]			
CC1=NOC(C(=O)Nc2nc(CON=C(c3ccccc3)n3nnnc3C)cs2)C1 (stereo not drawn) [Example 27]	2.42^[a]			
Cc1nnnn1C(=NOCc1csc(NC(=O)C2CC(c3ccccc3Cl)=NO2)n1)c1ccccc1 (stereo not drawn) [Example 28]	3.55^[a]	90%		
